From PMC9421656, “Beyond Retigabine: Design, Synthesis, and Pharmacological Characterization of a Potent and Chemically Stable Neuronal Kv7 Channel Activator with Anticonvulsant Activity” (Journal of Medicinal Chemistry, 2022)
Like-named read-outs stand apart in the source and are kept apart here. Each block holds one molecule with its values, some of them ahead of it.

Columns and labels:
Kv7.2/Kv7.3 channels [1] = molecular target: T1, Kv7.2/Kv7.3 channels (Homo sapiens, UniProt O43525+O43526); assay: FluxOR thallium-sensitive fluorescence-based assay in CHO cells stably expressing Kv7.2 + Kv7.3; type: cell-based; design: expressed in transfected cells
Protocol: While assay robustness in Kv7.2/Kv7.3-expressing cells was high (Z′ factor > 0.5),[27] the Z′ factor calculated in CHO cells expressing Kv7.2 subunits alone was <0.5; thus, all subsequent pharmacological screens were performed in Kv7.2/Kv7.3-expressing cells. […] The Kv7.2/Kv7.3-stable cell line was generated using a plasmid-based PiggyBac transposon system that enables genomic integration of multiple independent transposons containing distinct cDNA sequences. cDNAs for KCNQ2 and KCNQ3 genes (encoding for Kv7.2 and Kv7.3, respectively) were cloned into two different PiggyBac expression vectors (pB-CMV-MCS-EF1α-RedPuro, System Biosciences), and these two plasmids, together with a plasmid encoding for the transposase (System Biosciences), were transfected into CHO cells using Lipofectamine 2000 (Invitrogen) as indicated in the protocol provided by the seller company.
The selected clone stably expressing Kv7.2/Kv7.3 channels was grown in DMEM supplemented with 10% FBS, 50 U/mL Pen-Strep, 2 mM L-glutamine (all purchased from Gibco), and 4 μg/mL puromycin (Sigma) in a humidified atmosphere at 37 °C with 5% CO2. […] A kinetic dispense microplate reader (FLUOstar Optima) was used to read the plate, setting the excitation filter at 485 nm and the emission filter at 520 nm; “Stimulus buffer” prepared as indicated in the protocol was automatically added to wells after 5 s of recording; the plate was read every 1 s, for 50 s. The results were analyzed using Optima Data Analysis and Microsoft Excel.
Only experiments resulting in a Z′ > 0.5 were considered. Data shown (Figures 1D,E,F,G and 3B) were obtained from at least three independent experiments.
Data were analyzed using the GraphPad Prism 8.0.2 (GraphPad Software, LaJolla, CA). Statistically significant differences in the initial slope of the curves were evaluated through ordinary one-way ANOVA, and multiple comparisons were corrected with the Tukey test. […] Indicated EC50 values are the mean of at least three independent experiments ± standard error of the mean (SEM).

Kv7.2/Kv7.3 channels [2] = molecular target: T1, Kv7.2/Kv7.3 channels; design: expressed in transfected cells; conditions: cited from earlier work
Kv7.2/Kv7.3 channels [3] = molecular target: T1, Kv7.2/Kv7.3 channels; assay: Whole-cell patch-clamp electrophysiology in CHO cells expressing Kv7.2/Kv7.3; type: cell-based; design: expressed in transfected cells; host or cells: CHO cells, transient transfection (pcDNA3.1, Lipofectamine 2000); conditions: for EC50: dose-response 0.01–30 μM
Protocol: Channel subunits were expressed in Chinese hamster ovary (CHO) cells by transient transfection, using plasmids containing cDNAs encoding human Kv7.2 and/or Kv7.3, all cloned in the pcDNA3.1 vector. According to the experimental protocol, these plasmids were expressed individually or in combination, together with a plasmid-expressing enhanced green fluorescent protein (Clontech, Palo Alto, CA) used as a transfection marker. Total cDNA in the transfection mixture was kept at 4 μg. CHO cells were grown in 100 mm plastic Petri dishes in Dulbecco’s modified Eagle’s medium containing 10% fetal bovine serum, nonessential amino acids (0.1 mM), penicillin (50 U/mL), and streptomycin ([…]) in a humidified atmosphere at 37 °C with 5% CO2.
Currents from CHO cells were recorded at room temperature (20–22 °C) using the whole-cell configuration of the patch-clamp technique, with glass micropipettes of 3–5 MΩ resistance. During the recording, constant perfusion of extracellular solution was maintained. […] The pipette (intracellular) solution contained (in mM): 140 KCl, 2 MgCl2, 10 EGTA, 10 HEPES, 5 Mg^2+-ATP, at pH 7.3–7.4, with KOH. […] To evaluate the activity of each compound on Kv7.2 + Kv7.3 currents, the cells were clamped at −80 mV and conductance–voltage curves (G/V curves; activation curves) were generated by normalizing to the maximal value of the instantaneous isopotential currents at 0 mV and expressing the normalized values as a function of the preceding voltages. Data were fit to a Boltzmann distribution of the following form: y = max/[1 + exp (V1/2 – V)/k], where V is the test potential, V1/2 is the half-activation potential, and k is the slope factor.
Indicated EC50 values are the mean of at least three independent experiments ± standard error of the mean (SEM).
Statistically significant differences in electrophysiological data were evaluated with the Student t test or with ANOVA followed by the Student–Newman–Keuls test when multiple groups were compared, with the threshold set at p < 0.05. […] Values are expressed as the […] mean ± standard error of the mean (SEM) of at least three cells recorded in at least three independent transfections.

Kv7.2/Kv7.3 channel = conditions: TEA blockade of heteromeric Kv7.2/Kv7.3; cited from earlier work
Kv7.2/Kv7.3 currents = Kv7.2/Kv7.3 currents (Homo sapiens, UniProt O43525+O43526); conditions: 3 mM TEA
Sequence of Kv7.2/Kv7.3 currents (O43526 whole entry): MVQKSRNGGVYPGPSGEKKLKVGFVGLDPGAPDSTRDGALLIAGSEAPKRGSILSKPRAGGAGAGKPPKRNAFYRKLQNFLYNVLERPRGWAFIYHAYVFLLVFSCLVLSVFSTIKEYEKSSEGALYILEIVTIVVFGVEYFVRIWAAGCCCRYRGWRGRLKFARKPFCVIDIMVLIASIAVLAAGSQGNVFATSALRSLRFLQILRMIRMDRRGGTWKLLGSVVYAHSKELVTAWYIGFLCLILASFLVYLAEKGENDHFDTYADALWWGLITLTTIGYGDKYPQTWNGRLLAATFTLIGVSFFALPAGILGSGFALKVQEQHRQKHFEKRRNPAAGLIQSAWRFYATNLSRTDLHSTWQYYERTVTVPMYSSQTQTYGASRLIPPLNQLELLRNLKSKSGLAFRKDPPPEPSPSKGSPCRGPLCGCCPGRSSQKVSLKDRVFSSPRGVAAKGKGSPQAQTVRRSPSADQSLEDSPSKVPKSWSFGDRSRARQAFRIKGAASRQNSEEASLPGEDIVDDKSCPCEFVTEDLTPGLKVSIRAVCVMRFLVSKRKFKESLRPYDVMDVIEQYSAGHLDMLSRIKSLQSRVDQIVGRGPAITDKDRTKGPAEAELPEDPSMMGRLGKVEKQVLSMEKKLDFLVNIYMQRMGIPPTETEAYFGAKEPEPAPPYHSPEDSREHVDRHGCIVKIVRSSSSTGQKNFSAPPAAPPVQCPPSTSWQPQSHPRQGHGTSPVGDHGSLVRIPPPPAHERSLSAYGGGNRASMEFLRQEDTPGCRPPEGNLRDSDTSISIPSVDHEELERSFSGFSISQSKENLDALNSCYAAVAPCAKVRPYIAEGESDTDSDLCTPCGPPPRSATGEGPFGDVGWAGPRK
Sequence of Kv7.2/Kv7.3 currents (O43525 whole entry): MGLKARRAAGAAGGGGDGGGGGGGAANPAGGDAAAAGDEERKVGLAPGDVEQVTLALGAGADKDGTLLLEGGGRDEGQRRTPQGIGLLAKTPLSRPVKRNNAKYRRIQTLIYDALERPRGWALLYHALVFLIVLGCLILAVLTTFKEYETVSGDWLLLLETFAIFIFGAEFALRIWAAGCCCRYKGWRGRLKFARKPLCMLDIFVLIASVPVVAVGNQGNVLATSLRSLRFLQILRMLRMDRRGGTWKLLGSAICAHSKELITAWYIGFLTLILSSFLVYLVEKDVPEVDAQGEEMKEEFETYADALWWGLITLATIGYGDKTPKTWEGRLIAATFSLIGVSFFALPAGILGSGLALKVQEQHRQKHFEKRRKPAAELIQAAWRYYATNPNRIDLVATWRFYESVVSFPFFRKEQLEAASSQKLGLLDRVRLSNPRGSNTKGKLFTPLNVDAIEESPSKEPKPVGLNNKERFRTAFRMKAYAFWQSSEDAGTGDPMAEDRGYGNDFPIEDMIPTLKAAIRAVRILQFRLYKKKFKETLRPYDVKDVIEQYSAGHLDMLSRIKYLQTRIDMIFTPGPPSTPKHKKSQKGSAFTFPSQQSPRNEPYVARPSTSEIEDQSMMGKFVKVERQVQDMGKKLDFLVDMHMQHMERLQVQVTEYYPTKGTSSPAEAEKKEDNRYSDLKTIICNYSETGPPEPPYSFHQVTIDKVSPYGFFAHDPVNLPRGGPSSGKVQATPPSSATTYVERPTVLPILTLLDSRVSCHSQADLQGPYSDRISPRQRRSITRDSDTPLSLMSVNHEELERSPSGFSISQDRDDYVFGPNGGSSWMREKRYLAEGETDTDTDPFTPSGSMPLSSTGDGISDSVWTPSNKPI
Protocol: To ensure that both Kv7.2 and Kv7.3 subunits were expressed into the selected clone and formed heteromeric channels, pharmacological experiments with the Kv7 channel blocker tetraethylammonium (TEA) were performed.[64] […] The effect of TEA blockade on Kv7.2/Kv7.3 currents on the selected clone was compared to that of the blockade exerted on the control group, represented by CHO cells transiently transfected with Kv7.2/Kv7.3 channels. The effect of the TEA blockade was investigated using a ramp protocol in which Kv7.2/Kv7.3 currents were activated by 3 s voltage ramps from −80 to +20 mV.

Kv7.2 = conditions: TEA blockade of Kv7.2; cited from earlier work
[4] = literature value; cited from earlier work
epileptic activity = tested on: epileptic activity; design: method as in PMID 25319542; conditions: cited from earlier work

Slope of the fluorescent signal at 10 μM (Kv7.2/Kv7.3 channels [1]; 10 μM, initial slope of FluxOR signal between 5 and 15 s, mean ± SEM): 0.0272±0.0014
EC50 (Kv7.2/Kv7.3 channels [1]; FluxOR dose-response, slope parameter, read-out: EC50 (initial slope of the fluorescence signal)): 4 ± 1 µM
Leftward shift in V1/2 (ΔV1/2) (Kv7.2/Kv7.3 channels [3]; 1 μM): about 40 mV
Idrug/Icontrol (maximal current density) (Kv7.2/Kv7.3 channels [3]; calculated at +20 mV): 1.6 ± 0.2
EC50 (Kv7.2/Kv7.3 channels [3]; current at +20 mV, read-out: Maximal currents EC50): 0.27 ± 0.04 µM
EC50 (Kv7.2/Kv7.3 channels [3]; read-out: ΔV1/2 EC50): 0.24 ± 0.06 µM
Potency over retigabine as Kv7.2/Kv7.3 activator (fold/times) (Kv7.2/Kv7.3 channels [3]; from ΔV1/2 EC50): 10
Structure (SMILES): CCOC(=O)Nc1ccc(NCc2ccc(C(F)(F)F)cc2)c(F)c1N [RL-81]
Potency relative to retigabine as a Kv7 activator in vitro (Kv7.2/Kv7.3 channels [2]): > 15 times

Structure (SMILES): CC[N+](CC)(CC)CC [TEA, tetraethylammonium]
IC50 (Kv7.2/Kv7.3 channel): 3000 µM
Current inhibition (Kv7.2/Kv7.3 currents; CHO cells transiently transfected with Kv7.2/Kv7.3 (control group)): about 55%
Current inhibition (Kv7.2/Kv7.3 currents; selected stable clone (clone 5)): about 35%
IC50 (Kv7.2): 300 µM

Structure (SMILES): C#CCN(Cc1ccc(F)cc1)c1ccc(NC(=O)OCC)c(N)c1 [P-RET, N-propargyl retigabine]
logP (Lipophilicity (log P)): 3.48
Increase in brain/plasma ratio compared to retigabine [4]: 14 fold
In vivo potency higher than retigabine (suppression of epileptic activity) (epileptic activity): 2.5 times
